The values that follow come from ChEMBL document CHEMBL4699544, “Design and synthesis of Coenzyme A analogues as Aurora kinase A inhibitors: An exploration of the roles of the pyrophosphate and pantetheine moieties” (Bioorg Med Chem, 2020).

The target in one experiment is T1, Aurora kinase A (Homo sapiens, UniProt O14965).
T1 sequence (O14965 whole entry): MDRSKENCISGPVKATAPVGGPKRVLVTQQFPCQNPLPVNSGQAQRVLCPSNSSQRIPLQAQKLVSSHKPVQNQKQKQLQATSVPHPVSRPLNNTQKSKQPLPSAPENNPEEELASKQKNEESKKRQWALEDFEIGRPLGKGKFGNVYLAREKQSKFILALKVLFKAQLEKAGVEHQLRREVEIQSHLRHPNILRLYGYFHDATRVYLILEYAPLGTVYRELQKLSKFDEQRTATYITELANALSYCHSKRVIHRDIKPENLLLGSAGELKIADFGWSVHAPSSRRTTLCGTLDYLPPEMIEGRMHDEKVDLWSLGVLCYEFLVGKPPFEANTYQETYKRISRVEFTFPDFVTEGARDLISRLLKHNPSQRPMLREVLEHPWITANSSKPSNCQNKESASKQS
In words: Inhibition of recombinant Aurora A (unknown origin) using myelin basic protein as substrate incubated for 30 mins in presence or absence of DTT by [gamma-33P]-ATP based radioactive filter binding assay.
As to `CCCNC(=O)CCNC(=O)[C@H](O)C(C)(C)COC(=O)CC(=O)OC[C@@H]1O[C@H](n2cnc3c(N)ncnc32)[C@@H](O)[C@H]1O`, the IC50 came out at 1300 µM.

Consider `CCCNC(=O)CCNC(=O)[C@H](O)C(C)(C)COC(=O)CC(=O)NC[C@@H]1O[C@H](n2cnc3c(N)ncnc32)[C@@H](O)[C@H]1O`, for which the IC50 was 1100 µM.

On to `CC(C)(C)COC(=O)CCC(=O)OC[C@@H]1O[C@H](n2cnc3c(N)ncnc32)[C@@H](O)[C@H]1O`, for which the IC50 was 430 µM.

In the case of `CCNC(=O)CCNC(=O)[C@@H](O)C(C)(C)COP(=O)(O)OP(=O)(O)OC[C@@H]1O[C@H](n2cnc3c(N)ncnc32)[C@@H](O)[C@H]1OP(=O)(O)O`, the IC50 amounted to 160 µM.

For the compound `CNC(=O)[C@H](O)C(C)(C)COC(=O)CCC(=O)OC[C@@H]1O[C@H](n2cnc3c(N)ncnc32)[C@@H](O)[C@H]1O`, the IC50 is 1300 µM.

In the case of `CC(C)(COP(=O)(O)OP(=O)(O)OC[C@@H]1O[C@H](n2cnc3c(N)ncnc32)[C@@H](O)[C@H]1OP(=O)(O)O)[C@H](O)C(=O)NCCC(=O)NCCS`, the IC50 came to 5 µM.

Turning to `CCCNC(=O)CCNC(=O)[C@H](O)C(C)(C)COC(=O)CCC(=O)OC[C@@H]1O[C@H](n2cnc3c(N)ncnc32)[C@@H](O)[C@H]1O`, the IC50 turned out to be 497 µM.

For the compound `Nc1ncnc2c1ncn2[C@H]1O[C@@H](CNC(=O)CC(=O)O)[C@H](O)[C@@H]1O`, the IC50 worked out at 910 µM.

Turning to `CNC(=O)CCNC(=O)[C@H](O)C(C)(C)COC(=O)CCC(=O)OC[C@@H]1O[C@H](n2cnc3c(N)ncnc32)[C@@H](O)[C@H]1O`, the IC50 turned out to be 1400 µM.

Consider `CC(C)(COP(=O)(O)OP(=O)(O)OC[C@@H]1O[C@H](n2cnc3c(N)ncnc32)[C@@H](O)[C@H]1O)[C@H](O)C(=O)NCCC(=O)NCCS`, for which the IC50 came out at 17 µM.

Regarding `CC(C)(COC(=O)CCC(=O)OC[C@@H]1O[C@H](n2cnc3c(N)ncnc32)[C@@H](O)[C@H]1O)[C@@H](O)C(=O)NCCC(=O)NCCS`, the IC50 turned out to be 83 µM.

With `Nc1ncnc2c1ncn2[C@H]1O[C@@H](COC(=O)CC(=O)O)[C@H](O)[C@@H]1O`, the IC50 is 420 µM.

For the compound `CCCNC(=O)CCNC(=O)[C@H](O)C(C)(C)COC(=O)CCCC(=O)OC[C@@H]1O[C@H](n2cnc3c(N)ncnc32)[C@@H](O)[C@H]1O`, the IC50 was determined as 542 µM.

For another experiment, the target named is T1, Aurora kinase A. In words: Inhibition of recombinant Aurora A (unknown origin) using myelin basic protein as substrate incubated for 30 mins in presence of DTT by [gamma-33P]-ATP based radioactive filter binding assay.
With `CC(C)(COC(=O)CCC(=O)OC[C@@H]1O[C@H](n2cnc3c(N)ncnc32)[C@@H](O)[C@H]1O)[C@@H](O)C(=O)NCCC(=O)NCCS`, the IC50 was determined as 117 µM.

The target of the next experiment is T1, Aurora kinase A. In words: Inhibition of recombinant Aurora A (unknown origin) using myelin basic protein as substrate incubated for 30 mins in presence of DTT by [gamma-33P]-ATP based radioactive filter binding assay.
Regarding `CC(C)(COC(=O)CCC(=O)OC[C@@H]1O[C@H](n2cnc3c(N)ncnc32)[C@@H](O)[C@H]1O)[C@@H](O)C(=O)NCCC(=O)NCCS`, the IC50 was determined as 117 µM.
